Experimental data as given in the NIST ThermoML archive (doi:10.1016/j.jct.2010.09.006).

Assay: cn = amount concentration of the nth substance listed, in mol/dm3
Conditions: 101 kPa, Liquid, Taylor dispersion method

[Cl][Ni][Cl] [nickel chloride (NiCl2)] + O
binary diffusion coefficient [m2/s]
Conditions	c1 = 0	c1 = 0.001	c1 = 0.005	c1 = 0.01	c1 = 0.1
298.15 K	1.26e-09	1.23e-09	1.12e-09	1.04e-09	9.86e-10
310.15 K	1.4e-09	1.39e-09	1.37e-09	1.34e-09	1.29e-09
